Measurements taken from article PMC7918733, “Biological Profiling of Semisynthetic C19-Functionalized Ferruginol and Sugiol Analogues” (Antibiotics, 2021).
Where two headings read alike, the source gives them in different places.

Columns and labels:
[1] = tested on: L. infantum promastigotes; assay: Antileishmanial in vitro promastigote assay; conditions: Leishmania infantum, read-out: L. infantum IC50 ± SD
Protocol: (§3) The compounds were additionally studied in a panel of mammalian cell lines to determine cytotoxicity.
(§4) The parasites, culture procedure and the activity of functionalized abietane analogs on Leishmania promastigotes were performed according to the method previously reported by us [28], while the intracellular amastigote assay was performed on L. amazonensis and L. infantum according to the fluorometric test [29]. The J774 cell culture and the cytotoxicity assay was carried out according to our previously described method [30].

[2] = molecular target: T1, GABAA receptor subtype (α1β2γ2S) (Homo sapiens, UniProt P14867+P18507+P47870); assay: Two-microelectrode voltage-clamp in Xenopus laevis oocytes; conditions: for activation at 10 µM: read-out: IGABA Potentiation of 10 µM (%); for activation at 100 µM: read-out: IGABA Potentiation of 100 µM (%)
T1 sequence (P14867 28-456): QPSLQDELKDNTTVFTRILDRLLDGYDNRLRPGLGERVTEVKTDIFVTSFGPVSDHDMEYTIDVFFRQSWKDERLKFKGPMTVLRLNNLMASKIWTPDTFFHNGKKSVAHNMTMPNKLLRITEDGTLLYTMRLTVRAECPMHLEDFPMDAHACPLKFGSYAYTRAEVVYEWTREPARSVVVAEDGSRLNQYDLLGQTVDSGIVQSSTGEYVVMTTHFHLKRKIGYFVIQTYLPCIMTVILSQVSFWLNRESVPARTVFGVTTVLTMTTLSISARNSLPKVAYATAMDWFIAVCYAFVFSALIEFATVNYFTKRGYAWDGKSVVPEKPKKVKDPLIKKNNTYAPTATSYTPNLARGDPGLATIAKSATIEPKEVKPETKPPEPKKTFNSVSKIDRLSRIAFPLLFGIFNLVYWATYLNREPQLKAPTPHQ
T1 sequence (P47870 26-512): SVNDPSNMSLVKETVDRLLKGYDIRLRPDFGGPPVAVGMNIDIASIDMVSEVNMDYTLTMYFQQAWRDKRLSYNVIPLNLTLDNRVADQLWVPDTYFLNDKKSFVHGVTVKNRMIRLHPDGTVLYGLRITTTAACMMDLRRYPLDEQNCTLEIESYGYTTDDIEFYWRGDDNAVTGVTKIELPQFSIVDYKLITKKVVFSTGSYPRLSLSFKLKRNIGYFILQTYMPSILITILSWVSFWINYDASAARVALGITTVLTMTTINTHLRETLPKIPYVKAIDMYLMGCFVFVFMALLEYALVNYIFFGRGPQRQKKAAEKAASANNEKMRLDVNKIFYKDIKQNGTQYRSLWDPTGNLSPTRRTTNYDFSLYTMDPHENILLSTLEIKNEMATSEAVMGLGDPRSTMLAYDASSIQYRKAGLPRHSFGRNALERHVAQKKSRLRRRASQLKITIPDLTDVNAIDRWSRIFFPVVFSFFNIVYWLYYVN
T1 sequence (P18507 40-467 isoform P18507-1 limits assumed): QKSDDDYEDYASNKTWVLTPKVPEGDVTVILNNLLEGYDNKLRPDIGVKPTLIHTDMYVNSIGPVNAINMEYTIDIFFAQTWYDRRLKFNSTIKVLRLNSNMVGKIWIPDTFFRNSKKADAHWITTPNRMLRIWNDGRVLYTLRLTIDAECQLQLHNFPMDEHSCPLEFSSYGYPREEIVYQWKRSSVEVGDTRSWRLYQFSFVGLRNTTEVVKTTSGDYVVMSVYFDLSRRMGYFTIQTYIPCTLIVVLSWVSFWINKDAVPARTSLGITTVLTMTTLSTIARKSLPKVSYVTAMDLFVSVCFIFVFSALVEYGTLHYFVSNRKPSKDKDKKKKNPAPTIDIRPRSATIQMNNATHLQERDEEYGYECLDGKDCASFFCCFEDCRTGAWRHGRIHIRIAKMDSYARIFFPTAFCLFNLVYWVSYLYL
Protocol: All molecules were tested at concentrations of 10, 100 μM and compared with dehydroabietic acid (DHA) (3) as a reference [16].

HBL-100 (Breast) [3] = assay: Antiproliferative SRB assay; type: cell-based; conditions: Homo sapiens, mean ± SD of at least two experiments
Protocol: (§1) Cells, cultures and the activity test of abietane analogs followed reported methods. The SRB assay was performed as previously described, and the antiproliferative activity was given as GI50 values, which were calculated according to NCI formulas.

T-47D (Breast) [4] = assay: Antiproliferative SRB assay; type: cell-based; conditions: Homo sapiens, T47D, mean ± SD of at least two experiments
Protocol: as §1

HeLa (Cervix) [5] = assay: Antiproliferative SRB assay; type: cell-based; conditions: Homo sapiens, mean ± SD of at least two experiments
Protocol: as §1

[6] = tested on: L. donovani promastigotes; assay: Antileishmanial in vitro promastigote assay; conditions: Leishmania donovani, read-out: L. donovani IC50 ± SD
Protocol: as §3, §4

L. infantum amastigotes = assay: Intracellular amastigote assay (fluorometric test); type: cell-based; conditions: Leishmania infantum, read-out: L. infantum IC50 ± SD
HepG2 = assay: Cytotoxicity on mammalian cell lines; type: cell-based; conditions: Homo sapiens, HepG2; read-out: HepG2 EC50
Protocol: (§2) Assays were performed by using previously described DNA stain-based assay and methods, including cytotoxicity assays.

BJ = assay: Cytotoxicity on mammalian cell lines; type: cell-based; conditions: Homo sapiens, read-out: BJ EC50
Protocol: as §2

HEK293 = assay: Cytotoxicity on mammalian cell lines; type: cell-based; conditions: Homo sapiens, HEK293; read-out: HEK293 EC50
Protocol: as §2

RAJI = assay: Cytotoxicity on mammalian cell lines; type: cell-based; conditions: Homo sapiens, read-out: RAJI EC50
Protocol: as §2

in vitro = conditions: mouse, Macrophages J774 CC50
Protocol: as §3, §4

[7] = tested on: L. guyanensis promastigotes; assay: Antileishmanial in vitro promastigote assay; conditions: Leishmania guyanensis, read-out: L. guyanensis IC50 ± SD
Protocol: as §3, §4

P. falciparum 3D7 strain = assay: Antiplasmodial DNA stain-based growth assay; type: cell-based; conditions: Plasmodium falciparum, 3D7; chloroquine-sensitive strain; 72 h incubation; read-out: P. falciparum 3D7 EC50
Protocol: as §2

P. falciparum K1 strain = assay: Antiplasmodial DNA stain-based growth assay; type: cell-based; conditions: Plasmodium falciparum, K1; chloroquine-resistant strain; 72 h incubation; read-out: P. falciparum K1 EC50
Protocol: as §2

SW1573 (Lung) [8] = assay: Antiproliferative SRB assay; type: cell-based, human; conditions: Homo sapiens, SW1573, mean ± SD of at least two experiments
Protocol: as §1

WiDr (Colon) [9] = assay: Antiproliferative SRB assay; type: cell-based, human; conditions: Homo sapiens, WiDr, mean ± SD of at least two experiments
Protocol: as §1

A549 (Lung) [10] = assay: Antiproliferative SRB assay; type: cell-based, human; conditions: Homo sapiens, A549, mean ± SD of at least two experiments
Protocol: as §1

[11] = tested on: L. amazonensis promastigotes; assay: Antileishmanial in vitro promastigote assay; conditions: Leishmania amazonensis, read-out: L. amazonensis IC50 ± SD
Protocol: as §3, §4

[12] = tested on: L. amazonensis amastigotes; assay: Intracellular amastigote assay (fluorometric test); type: cell-based; conditions: Leishmania amazonensis, read-out: L. amazonensis IC50 ± SD
HBL-100 (Breast) [13] = conditions: C18-congeners; cited from earlier work
HeLa (Cervix) [14] = conditions: C18-congeners; cited from earlier work
A549 (Lung) [15] = conditions: C18-congeners; cited from earlier work
[16] = tested on: L. amazonensis promastigotes; parameters: method as in PMID 30840453; conditions: C18-congeners, read-out: L. amazonensis IC50 ± SD; cited from earlier work
SW1573 (Lung) [17] = conditions: C18-congeners; cited from earlier work
[18] = tested on: L. donovani promastigotes; conditions: C18-congeners, read-out: L. donovani IC50 ± SD; cited from earlier work
[19] = molecular target: T1, GABAA receptor subtype (α1β2γ2S); parameters: expressed in transfected cells; host or cells: Xenopus laevis oocytes; conditions: C18-congeners, cited from earlier work
T-47D (Breast) [20] = conditions: C18-congeners; cited from earlier work
[21] = tested on: L. infantum promastigotes; parameters: method as in PMID 30840453; conditions: C18-congeners, read-out: L. infantum IC50 ± SD; cited from earlier work
[22] = tested on: L. guyanensis promastigotes; parameters: method as in PMID 30840453; conditions: C18-congeners, read-out: L. guyanensis IC50 ± SD; cited from earlier work
WiDr (Colon) [23] = conditions: C18-congeners; cited from earlier work
Macrophages J774 = conditions: read-out: Macrophages J774 CC50; C18-congeners; cited from earlier work

SMILES: CC(C)c1cc2c(cc1O)C1(C)CCCC(C)(C(=O)O)C1CC2=O (single isomer, unassigned; (+)) [Compound 8a, (+)-4-epi-liquiditerpenoic acid A]
- IC50 [1]: 100 ± 20 µM
- activation at 10 µM [2]: -8 ± 1%
- activation at 100 µM [2]: -8 ± 3%
- GI50 (HBL-100 (Breast) [3]): 39 ± 14 µM
- GI50 (T-47D (Breast) [4]): 31 ± 12 µM
- GI50 (HeLa (Cervix) [5]): 12 ± 3.8 µM
- IC50 [6]: 84.4 ± 31.6 µM
- IC50 (L. infantum amastigotes): 20.1 ± 2 µM
- EC50 (HepG2): > 25 µM
- EC50 (BJ): > 25 µM
- EC50 (HEK293): > 25 µM
- EC50 (RAJI): > 25 µM
- CC50 (in vitro): > 200 µM
- IC50 [7]: 3 ± 0.9 µM
- EC50 (P. falciparum 3D7 strain): > 15 µM
- EC50 (P. falciparum K1 strain): > 15 µM
- GI50 (SW1573 (Lung) [8]): 41 ± 17 µM
- GI50 (WiDr (Colon) [9]): 33 ± 15 µM
- GI50 (A549 (Lung) [10]): 12 ± 2.9 µM
- IC50 [11]: 94.5 ± 6.5 µM
- IC50 [12]: 21.4 ± 2.3 µM

SMILES: CC(C)c1cc2c(cc1O)[C@@]1(C)CCC[C@](C)(CO)[C@@H]1CC2=O [Compound 15, 19-hydroxysugiol]
- IGABA Potentiation of 100 µM (%) ([2]; 100 µM, α1β2γ2S receptors): 238 ± 28%
- activation at 10 µM [2]: 30 ± 14%
- activation at 100 µM [2]: 238%
- GI50 (HBL-100 (Breast) [3]): 17 ± 1.7 µM
- GI50 (T-47D (Breast) [4]): 19 ± 1.1 µM
- GI50 (HeLa (Cervix) [5]): 15 ± 1.1 µM
- EC50 (HepG2): > 25 µM
- EC50 (BJ): > 25 µM
- EC50 (HEK293): > 25 µM
- EC50 (RAJI): > 25 µM
- CC50 (in vitro): 50.1 ± 2.4 µM
- EC50 (P. falciparum 3D7 strain): > 15 µM
- EC50 (P. falciparum K1 strain): 9.4 µM
- GI50 (SW1573 (Lung) [8]): 19 ± 3.3 µM
- GI50 (WiDr (Colon) [9]): 17 ± 5 µM
- GI50 (A549 (Lung) [10]): 10 ± 0.3 µM

SMILES: CC(C)c1cc2c(cc1O)[C@@]1(C)CCC[C@@](C)(CO)[C@@H]1CC2=O [Compound 15b]
- GI50 (HBL-100 (Breast) [13]): 16 ± 2 µM
- GI50 (HeLa (Cervix) [14]): 16 ± 2.4 µM
- GI50 (A549 (Lung) [15]): 19 ± 3.3 µM
- IC50 [16]: 10.2 ± 0.6 µM
- GI50 (SW1573 (Lung) [17]): 23 ± 0.7 µM
- IC50 [18]: 19.7 ± 0.4 µM
- IGABA Potentiation of 10 µM (%) [19]: 4.5 ± 5.8%
- IGABA Potentiation of 100 µM (%) [19]: −30.3 ± 9.5%
- GI50 (T-47D (Breast) [20]): 20 ± 2.7 µM
- IC50 [21]: 9.7 ± 0.8 µM
- IC50 [22]: 16.5 ± 0.7 µM
- GI50 (WiDr (Colon) [23]): 19 ± 2.1 µM
- CC50 (Macrophages J774): 14.4 ± 2.8 µM

SMILES: CC(C)c1cc2c(cc1O)[C@@]1(C)CCC[C@@](C)(CO)[C@@H]1CC2 [Compound 14b]
- GI50 (HBL-100 (Breast) [13]): 16 ± 2 µM
- GI50 (HeLa (Cervix) [14]): 12 ± 1.8 µM
- GI50 (A549 (Lung) [15]): 12 ± 1.9 µM
- IC50 [16]: 7.7 ± 0.8 µM
- GI50 (SW1573 (Lung) [17]): 15 ± 2.8 µM
- IC50 [18]: 13.9 ± 0.1 µM
- IGABA Potentiation of 10 µM (%) [19]: 29.3 ± 10.6%
- IGABA Potentiation of 100 µM (%) [19]: 154.1 ± 34.2%
- GI50 (T-47D (Breast) [20]): 16 ± 0.9 µM
- IC50 [21]: 0.7 ± 0.1 µM
- IC50 [22]: 12.5 ± 2.2 µM
- GI50 (WiDr (Colon) [23]): 17 ± 1.3 µM
- CC50 (Macrophages J774): 23.4 ± 4.6 µM

SMILES: COC(=O)[C@]1(C)CCC[C@]2(C)c3cc(O)c(C(C)C)cc3CC[C@@H]12 [Compound 12b]
- GI50 (HBL-100 (Breast) [13]): 9.7 ± 2.7 µM
- GI50 (HeLa (Cervix) [14]): 5.8 ± 0.5 µM
- GI50 (A549 (Lung) [15]): 9.4 ± 2.6 µM
- IC50 [16]: 3.9 ± 0.1 µM
- GI50 (SW1573 (Lung) [17]): 11 ± 2 µM
- IC50 [18]: 9.21 ± 0.06 µM
- IGABA Potentiation of 10 µM (%) [19]: 23.7 ± 9.6%
- IGABA Potentiation of 100 µM (%) [19]: 378.0 ± 65.6%
- GI50 (T-47D (Breast) [20]): 19 ± 3.8 µM
- IC50 [21]: 5 ± 0.3 µM
- IC50 [22]: 5.9 ± 1.1 µM
- GI50 (WiDr (Colon) [23]): 23 ± 4.4 µM
- CC50 (Macrophages J774): 34.2 ± 3.1 µM

SMILES: CCCCCCCCCCCCCCCCOP(=O)([O-])OCC[N+](C)(C)C [Miltefosine, reference compound]
- IC50 [1]: 3.4 ± 0.6 µM
- IC50 [6]: 0.15 ± 0.02 µM
- IC50 (L. infantum amastigotes): 58.1 ± 4.4 µM
- CC50 (in vitro): 136 ± 1.4 µM
- IC50 [7]: 18.2 ± 0.6 µM
- IC50 [11]: 47.7 ± 5 µM
- IC50 [12]: 16.5 ± 1.9 µM

SMILES: COC(=O)[C@]1(C)CCC[C@]2(C)c3cc(OC(C)=O)c(C(C)C)cc3CC[C@@H]12 [Compound 10b]
- GI50 (HBL-100 (Breast) [13]): 15 ± 3.9 µM
- GI50 (HeLa (Cervix) [14]): 4.4 ± 1.1 µM
- GI50 (A549 (Lung) [15]): 11 ± 1.8 µM
- IC50 [16]: 3.2 ± 0.3 µM
- GI50 (SW1573 (Lung) [17]): 12 ± 3.2 µM
- IC50 [18]: 8.1 ± 0.7 µM
- IGABA Potentiation of 10 µM (%) [19]: 5.1 ± 2.1%
- IGABA Potentiation of 100 µM (%) [19]: 26.3 ± 8.9%
- GI50 (T-47D (Breast) [20]): 14 ± 2.9 µM
- IC50 [21]: 1.3 ± 0.1 µM
- IC50 [22]: 5.5 ± 0.7 µM
- GI50 (WiDr (Colon) [23]): 16 ± 2.5 µM
- CC50 (Macrophages J774): 26.5 ± 2.7 µM

SMILES: COC(=O)[C@]1(C)CCC[C@]2(C)c3cc(OC(C)=O)c(C(C)C)cc3C(=O)C[C@@H]12 [Compound 11b]
- GI50 (HBL-100 (Breast) [13]): 16 ± 1.5 µM
- GI50 (HeLa (Cervix) [14]): 13 ± 2.3 µM
- GI50 (A549 (Lung) [15]): 14 ± 0.4 µM
- IC50 [16]: 0.65 ± 0.03 µM
- GI50 (SW1573 (Lung) [17]): 17 ± 1.9 µM
- IC50 [18]: 4.4 ± 0.5 µM
- IGABA Potentiation of 10 µM (%) [19]: −1.0 ± 2.8%
- IGABA Potentiation of 100 µM (%) [19]: 46.7 ± 8.3%
- GI50 (T-47D (Breast) [20]): 20 ± 2.9 µM
- IC50 [21]: 0.7 ± 0.2 µM
- IC50 [22]: 1.3 ± 0.1 µM
- GI50 (WiDr (Colon) [23]): 19 ± 1.7 µM
- CC50 (Macrophages J774): 17.8 ± 2.8 µM

SMILES: CC(C)c1cc2c(cc1O)[C@@]1(C)CCC[C@@](C)(C(=O)O)C1CC2 (some centres unmarked) [Compound 13b, 12-hydroxydehydroabietic acid]
- GI50 (HBL-100 (Breast) [13]): > 100 µM
- GI50 (HeLa (Cervix) [14]): 96 ± 5.5 µM
- GI50 (A549 (Lung) [15]): 70 ± 6.3 µM
- IC50 [16]: 54.1 ± 6.5 µM
- GI50 (SW1573 (Lung) [17]): 93 ± 9.3 µM
- IC50 [18]: 58.1 ± 0.7 µM
- IGABA Potentiation of 10 µM (%) [19]: 8.9 ± 2.3%
- IGABA Potentiation of 100 µM (%) [19]: 12.1 ± 2.9%
- GI50 (T-47D (Breast) [20]): > 100 µM
- IC50 [21]: 43.6 ± 3.4 µM
- IC50 [22]: 71.4 ± 1.5 µM
- GI50 (WiDr (Colon) [23]): > 100 µM
- CC50 (Macrophages J774): 85.8 ± 28.8 µM
